In paper PMC5542402 (Combinatorial chemistry & high throughput screening, 2016):

Biological target: PhoP (Mycobacterium tuberculosis, UniProt P71814)
Type: binding

In the case of `[N-]=[N+]=Nc1ccc(C(=O)CSC[C@H](NC(=O)CC[C@H](N)C(=O)O)C(=O)NCC(=O)O)cc1` [NCGC00093547], the Kd is reported as 12.6 µM.
